Reference: patent EP2818471A1, “Nitrogen bicyclic compounds as inhibitors for Scyl1 and Grk5” (Max-Planck-Gesellschaft zur Förderung der Wissenschaften …, priority 2013, dated 2014)
pIC50: −log10 of the molar value.

Biological target: T1, full length Grk5 (Homo sapiens, UniProt P34947)
T1 construct: 2 µl 6/2 fold concentrated full length Grk5 (Millipore, #14-714) in reaction buffer is added to each well; purchased Millipore 14-714
Assay: GRK5 kinase activity assay (ADP Glo Kinase Assay)
Format: biochemical
Details: Table 5
Procedure: Increasing concentrations of GRK5 are incubated together with 100 µM ATP in the absence and presence of 10 µM casein in a reaction buffer. Within this incubation non-phosphorylated casein is converted into phosphorylated casein and ATP is converted into ADP. Thereafter nonconverted ATP is digested into AMP by addition of the ADP-Glo™Reagent. Subsequently the ADP that is produced by GRK5 activity is phosphorylated back to ATP by addition of Promega Kinase Detection Reagent. These ATP levels serve as measure for the GRK5 activity and are quantified by a luciferase/luciferin reaction.
Km(ATP) was determined by measuring the GRK5 activity at increasing ATP concentrations.
The reaction buffer used was composed of: 20 mM MES pH 6.0, 1 mM DTT, 10 mM MgCl2, 0.01 % Tween20 and the reaction volume was 6µl.
Firstly 4 µl 6/4 fold concentrated substrate and 6/4 fold concentrated ATP in 1 fold concentrated reaction buffer are added to each well of the assay plate. Subsequently 67 nl 1000 fold concentrated test compound in 100 % DMSO are added to each well except to C- and C+ wells using pin tool. Then 67 nl 100 % DMSO are pipetted to C- (no kinase, no compound) and C+ (no compound) wells using pin-tool and 2 µl reaction buffer are added to C- wells. […] Finally, after incubation for 40 min at room temperature the luminescence intensity was measured. […]

T1 sequence (P34947 whole entry): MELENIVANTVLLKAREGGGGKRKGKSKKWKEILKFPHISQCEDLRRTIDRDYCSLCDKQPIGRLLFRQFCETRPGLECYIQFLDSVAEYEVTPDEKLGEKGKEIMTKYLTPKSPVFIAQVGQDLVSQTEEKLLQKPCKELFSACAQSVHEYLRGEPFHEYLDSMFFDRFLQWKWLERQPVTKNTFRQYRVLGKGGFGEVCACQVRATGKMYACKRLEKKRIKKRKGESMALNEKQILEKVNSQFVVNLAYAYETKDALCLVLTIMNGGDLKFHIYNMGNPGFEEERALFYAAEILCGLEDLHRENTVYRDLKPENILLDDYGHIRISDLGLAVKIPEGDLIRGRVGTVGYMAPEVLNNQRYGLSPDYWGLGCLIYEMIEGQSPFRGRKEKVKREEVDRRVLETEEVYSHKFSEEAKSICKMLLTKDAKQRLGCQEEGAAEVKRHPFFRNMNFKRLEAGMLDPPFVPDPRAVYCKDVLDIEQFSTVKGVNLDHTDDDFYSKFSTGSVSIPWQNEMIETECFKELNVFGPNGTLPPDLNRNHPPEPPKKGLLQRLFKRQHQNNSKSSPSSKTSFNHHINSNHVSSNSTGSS

pIC50: 4.10 to 4.70
SMILES: NC(=O)c1ccc(-c2cnc3ccc(Cc4ccc(F)cc4)nn23)cc1 [compound 1, 4-[6-[(4-fluorophenyl)methyl]imidazo[1,2-b]pyridazin-3-yl]benzamide]
